Assay: Crystal form stability test (preservation, then powder X-ray diffraction and content)
Format: physicochemical
Description: Using high-speed imaging plate X-ray diffraction system (R-AXIS VII) manufactured by Rigaku Corporation, X-ray diffraction data of the crystals of the compound of the formula (1) were measured at −180° C. with a CuK α radiation (50 kV, 90 mA, λ=1.5418 Å). A sample was filled in a glass capillary having an inner diameter of 0.7 mm. The diffraction images were collected under the conditions a camera length of 300 mm, an oscillation angle of 40°, and an exposure time of 45 minutes. A contour integration treatment of the diffraction image was carried out by an R-AXIS display software available from Rigaku Corporation (integration range: 45 to 135°). The maximum value of the obtained integrated intensity was made 100, relative intensities of the respective integral intensities were calculated, and plotting them based on the diffraction angle 20 to prepare a diffraction pattern. With regard to the crystals of the compounds of the formula (1), these were preserved under the following mentioned temperature and humidity conditions, and then powder X-ray diffractions were measured. […] Term: 12 months Preservation condition: 25±2° C./[…] Packaging form: Polyethylene double bag/fiber drum Term: 6 months Preservation condition: 40±2° C./75±5% RH* *: RH: relative humidity Packaging form: Polyethylene double bag/fiber drum

[1] = Test 1, 25° C./60% RH, at starting
[2] = Test 1, 25° C./60% RH, preservation period 3 months
[3] = Test 1, 25° C./60% RH, preservation period 6 months
[4] = Test 1, 25° C./60% RH, preservation period 9 months
[5] = Test 1, 25° C./60% RH, preservation period 12 months
[6] = Test 2, 40° C./75% RH, preservation period 1 month
[7] = Test 2, 40° C./75% RH, preservation period 3 months
[8] = Test 2, 40° C./75% RH, preservation period 6 months

Content (%) [1]: (99.7%)*
Crystal form (powder X-ray diffraction) [1]: Form A
Content (%) [2]: (99.9%)*
Crystal form (powder X-ray diffraction) [2]: Form A
Content (%) [3]: (98.9%)*
Crystal form (powder X-ray diffraction) [3]: Form A
Content (%) [4]: (99.9%)*
Crystal form (powder X-ray diffraction) [4]: Form A
Content (%) [5]: (99.0%)*
Crystal form (powder X-ray diffraction) [5]: Form A
Change in crystal form after preservation (Test 1 and Test 2, either of the measurement times): no change in crystal form was observed
Content (%) [6]: (100.3%)*
Crystal form (powder X-ray diffraction) [6]: Form A
Content (%) [7]: (100.6%)*
Crystal form (powder X-ray diffraction) [7]: Form A
Content (%) [8]: (100.4%)*
Crystal form (powder X-ray diffraction) [8]: Form A
Period over which Form A crystals were extremely stable and high purity (even under the accelerated conditions): ≥ 6 months
SMILES: Cc1ccc(-n2nc(C)cc2C)c(O)c1 [formula (1), 2-(3,5-dimethyl-1H-pyrazol-1-yl)-5-methylphenol]

From patent publication US20170233346A1, “CRYSTALLINE ANTI-TRICHOPHYTON AGENTS AND PREPARATION PROCESS THEREOF” (MEIJI SEIKA PHARMA CO., LTD., priority 2014, published 2017)
